The target of one assay is DGKζ (Homo sapiens (Human), UniProt Q13574). Briefly: Biochemical DGK IC50 assay (ADP-Glo, lipid micelle substrate), DGKζ. The following applies: full length DGKζ 0.5 nM, ATP 140 μM, DAG 80 μM. As for the experimental part: (§1) Enzymatic reactions of DGKζ, DGKα and DGKδ were performed using ADP-Glo assay with lipid micelle substrate. […] Full length DGKα (D21-10BG, SignalChem) and full length DGKδ (D23-10G, SignalChem) were purchased. Lipid micelle was prepared by dissolving DAG (Sigma, 317505-10MG) and PS (Sigma, P7769-100MG) with chloroform which was furtherly removed by rotary evaporation. The resulted product was resuspended in buffer containing 25 mM HEPES pH 7.0, 0.5 mM EDTA and 160 mM Octyl β-D glucopyranoside by vigorous mixing and ultrasonic (IID, Scientz).
Chain of DGKζ (Q13574 other isoform, or with tags, fused parts or gaps): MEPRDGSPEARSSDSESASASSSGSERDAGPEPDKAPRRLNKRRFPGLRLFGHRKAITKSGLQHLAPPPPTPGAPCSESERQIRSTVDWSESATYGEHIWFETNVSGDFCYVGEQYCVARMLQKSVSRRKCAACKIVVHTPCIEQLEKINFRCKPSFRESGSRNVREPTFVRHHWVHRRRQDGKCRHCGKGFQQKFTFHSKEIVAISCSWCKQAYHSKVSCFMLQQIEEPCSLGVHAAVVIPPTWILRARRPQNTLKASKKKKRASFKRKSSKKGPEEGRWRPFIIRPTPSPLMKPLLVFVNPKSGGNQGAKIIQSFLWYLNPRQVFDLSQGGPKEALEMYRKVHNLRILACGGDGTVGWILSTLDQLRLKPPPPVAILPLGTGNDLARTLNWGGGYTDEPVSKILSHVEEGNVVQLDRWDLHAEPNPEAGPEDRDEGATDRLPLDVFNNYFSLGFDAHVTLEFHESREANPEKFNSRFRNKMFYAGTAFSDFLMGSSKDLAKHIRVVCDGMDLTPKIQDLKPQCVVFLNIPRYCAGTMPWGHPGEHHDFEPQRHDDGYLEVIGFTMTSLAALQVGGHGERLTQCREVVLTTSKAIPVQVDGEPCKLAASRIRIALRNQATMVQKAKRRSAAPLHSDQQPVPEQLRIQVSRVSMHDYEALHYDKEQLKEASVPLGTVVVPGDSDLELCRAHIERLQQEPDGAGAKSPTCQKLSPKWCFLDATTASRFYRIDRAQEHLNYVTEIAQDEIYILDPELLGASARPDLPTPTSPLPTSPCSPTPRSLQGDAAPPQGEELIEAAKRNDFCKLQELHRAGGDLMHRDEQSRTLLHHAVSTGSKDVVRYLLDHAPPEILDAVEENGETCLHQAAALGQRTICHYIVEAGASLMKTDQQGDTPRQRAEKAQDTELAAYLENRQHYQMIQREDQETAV
(§2) The inhibition activities testing for the compound disclosed herein were carried out at room temperature in assay buffer containing 50 mM HEPES, 10 mM MgCl2, 0.01% BSA, 0.1 mM Na3VO4, 0.005% Tween-20 and 0.01 mM CaCl2. Compounds in DMSO were dispensed into wells of a black 384 well plate (Corning 4514) using D300e digital dispenser (Tecan). […] 3 μL 2× enzyme solution was added to wells. […] After 1 hour reaction, 5 μL ADP-Glo reagent (Promga V9101) was added and incubated for 40 minutes. 10 μL Kinase Detection reagent was added and incubated for 30 minutes. Luminescence was measured on a microplate reader (PHERAstar FSX, BMG labtech). The IC50s are calculated based on inhibition of enzyme activity in the presence of increasing concentrations of compounds.
Human His-TEV-DGK-zeta-pFastBac1 and human baculovirus samples was generated using the Bac-to-Bac baculovirus expression system (Invitrogen) according to the manufacturer's protocol. The DNA used for expression of DGK-zeta, have SEQ ID Nos: 1. Baculovirus amplification was achieved using infected SF9 cells at 1:2000 virus/cells ratios, and grown for 96 hours at 27° C. post-transfected.
Full length human DGKζ produced as described above, was purified from Sf9 baculovirus-infected insect cell paste. The cells were lysed using sonication method, and the lysates were clarified by centrifugation.

A further assay deals with DGKα (Homo sapiens (Human), UniProt P23743). Briefly: Biochemical DGK IC50 assay (ADP-Glo, lipid micelle substrate), DGKα. Also: full length DGKα 7.5 nM. The note with it: full length DGKα […], ATP 140 μM, DAG 80 μM. As for the experimental part: as §1, §2
Chain of DGKα (P23743 whole entry): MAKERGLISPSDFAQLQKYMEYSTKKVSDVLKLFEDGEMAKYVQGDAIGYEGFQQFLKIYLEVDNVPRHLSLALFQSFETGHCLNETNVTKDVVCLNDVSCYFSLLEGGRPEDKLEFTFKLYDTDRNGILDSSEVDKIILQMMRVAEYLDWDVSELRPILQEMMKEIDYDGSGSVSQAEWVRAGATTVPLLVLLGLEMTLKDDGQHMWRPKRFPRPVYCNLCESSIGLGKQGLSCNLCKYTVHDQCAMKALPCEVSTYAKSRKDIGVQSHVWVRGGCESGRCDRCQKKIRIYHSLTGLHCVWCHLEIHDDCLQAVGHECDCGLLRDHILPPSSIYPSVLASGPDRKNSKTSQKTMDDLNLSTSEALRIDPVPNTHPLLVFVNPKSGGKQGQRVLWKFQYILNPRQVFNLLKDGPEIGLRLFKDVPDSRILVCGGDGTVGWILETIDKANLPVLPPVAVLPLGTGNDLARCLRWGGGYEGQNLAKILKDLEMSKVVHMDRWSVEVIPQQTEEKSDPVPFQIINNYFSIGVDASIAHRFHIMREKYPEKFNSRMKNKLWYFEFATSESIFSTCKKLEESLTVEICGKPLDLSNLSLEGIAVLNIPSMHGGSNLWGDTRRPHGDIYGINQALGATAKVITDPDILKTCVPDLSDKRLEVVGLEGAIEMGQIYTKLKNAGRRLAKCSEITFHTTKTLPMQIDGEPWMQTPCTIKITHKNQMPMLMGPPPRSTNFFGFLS
(In ADP-Glo the light output rises with the ADP produced.)

Regarding `CC[C@H]1CN(C(C)c2ccn3ncc(F)c3n2)[C@H](CC)CN1c1nc(=O)n(C)c2cc(CC#N)nn12` (stereo partly drawn) [Compound A50, 2-(4-((2S,5R)-2,5-diethyl-4-(1-(3-fluoropyrazolo[1,5-a]pyrimidin-5-yl)ethyl)piperazin-1-yl)-1-methyl-2-oxo-1,2-dihydropyrazolo[1,5-a][1,3,5]triazin-7-yl)acetonitrile], the figures for the IC50 on DGKζ and on DGKα were 38 nM and 55 nM, respectively.
Turning to `CC[C@H]1CN(C(C)c2ccn3nc(C)cc3c2)[C@H](CC)CN1c1nc(=O)n(C)c2cc(CC#N)nn12` (stereo partly drawn) [Compound A55, 2-(4-((2S,5R)-2,5-diethyl-4-(1-(2-methylpyrazolo[1,5-a]pyridin-5-yl)ethyl)piperazin-1-yl)-1-methyl-2-oxo-1,2-dihydropyrazolo[1,5-a][1,3,5]triazin-7-yl)acetonitrile], the values for the IC50 on DGKζ and against DGKα were 53 nM and 150 nM, respectively.
Take `CC[C@H]1CN(C(C)c2ccn3nc(F)cc3n2)[C@H](CC)CN1c1nc(=O)n(C)c2cc(CC#N)nn12` (stereo partly drawn) [Compound A56, 2-(4-((2S,5R)-2,5-diethyl-4-(1-(2-fluoropyrazolo[1,5-a]pyrimidin-5-yl)ethyl)piperazin-1-yl)-1-methyl-2-oxo-1,2-dihydropyrazolo[1,5-a][1,3,5]triazin-7-yl)acetonitrile]: the values for the IC50 on DGKζ and on DGKα were 73 nM and 17 nM, respectively.
The matching figures for `CC[C@H]1CN(C(C)c2ccn3nc(Cl)cc3n2)[C@H](CC)CN1c1nc(=O)n(C)c2cc(CC#N)nn12` (stereo partly drawn) [Compound A58, 2-(4-((2S,5R)-4-(l-(2-chloropyrazolo[1,5-a]pyrimidin-5-yl)ethyl)-2,5-diethylpiperazin-1-yl)-1-methyl-2-oxo-1,2-dihydropyrazolo[1,5-a][1,3,5]triazin-7-yl)acetonitrile]: 42 nM and 15 nM.
Consider `CC[C@H]1CN(C(C)c2ccn3nc(Cl)c(F)c3n2)[C@H](CC)CN1c1nc(=O)n(C)c2cc(CC#N)nn12` (stereo partly drawn) [Compound A59, 2-(4-((2S,5R)-4-(1-(2-chloro-3-fluoropyrazolo[1,5-a]pyrimidin-5-yl)ethyl)-2,5-diethylpiperazin-1-yl)-1-methyl-2-oxo-1,2-dihydropyrazolo[1,5-a][1,3,5]triazin-7-yl)acetonitrile], for which the values for the IC50 against DGKζ and at DGKα were 38 nM and 111 nM, respectively.
For `CC[C@H]1CN(C(C)c2ccn3nc(F)c(F)c3n2)[C@H](CC)CN1c1nc(=O)n(C)c2cc(CC#N)nn12` (stereo partly drawn) [Compound A60, 2-(4-((2S,5R)-4-(1-(2,3-difluoropyrazolo[1,5-a]pyrimidin-5-yl)ethyl)-2,5-diethylpiperazin-1-yl)-1-methyl-2-oxo-1,2-dihydropyrazolo[1,5-a][1,3,5]triazin-7-yl)acetonitrile] the same measures were 40 nM and 63 nM.

The IC50 is the point on the concentration scale where inhibition reaches its midpoint. Higher therefore signals lower potency.

The values are drawn from patent US20250353858A1, “CONDENSED HETEROCYCLIC COMPOUNDS AS INHIBITOR OF DIACYLGLYCEROL KINASES” (BEONE MEDICINES I GMBH, priority 2023, published 2025).
